Like-named read-outs stand apart in the source and are kept apart here.
Procedure: A lyophilizated product solubility test and a stability test are conducted to compare the cosmetic composition of the present invention with the start materials of the cosmetic composition.

O=C1O[C@H]([C@@H](O)CO)C([O-])=C1OP(=O)([O-])[O-].O=C1O[C@H]([C@@H](O)CO)C([O-])=C1OP(=O)([O-])[O-].[Mg+2].[Mg+2].[Mg+2] [Magnesium ascorbyl phosphate, magnesium ascorbyl phosphate]
Solubility (after processing the cosmetic composition (lyophilized with water-soluble collagen, rehydrated with the amount of water removed)): 2 wt %
Solubility (start materials of the cosmetic composition (without processing)): 0.5 wt %

— patent US20060222617A1, “Water-soluble cosmetic composition and method for manufacturing the same” (Taiyen Biotech. Co. Ltd., priority 2005, published 2006)
